The text below walks through data of US20260356819A1, “OXOISOINDOLINYL-SUBSTITUTED […] DERIVATIVE AND USE THEREOF” (GLUETACS THERAPEUTICS (SHANGHAI) CO., LTD., priority 2023, published 2026).

Holding throughout (format): cell-based
Conditions in all cases: compounds at 50 nM and 500 nM

Test [1] deals with T1, IKZF1 (Homo sapiens, UniProt Q13422+Q96SW2).
T1 construct: The supernatant was aspirated as the extracted total cell protein; endogenous in cells; host or cells: human peripheral blood mononuclear cells (hPBMCs)
Kind of test: Western blot degradation of IKZF1 in hPBMCs (24 h). The method in brief: (§1)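 Thawed human PBMCs, 1×10^6 cells/mL; cpd 50 nM or 500 nM, 24 h; RIPA lysis, BCA, SDS-PAGE, NC transfer, immunoblot. Readout: grayscale/internal control → % remaining; degradation = 1 − remaining.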

Test [2] concerns the target T2, IKZF3 (Homo sapiens, UniProt Q96SW2+Q9UKT9).
T2 construct: The supernatant was aspirated as the extracted total cell protein; endogenous in cells; host or cells: human peripheral blood mononuclear cells (hPBMCs)
Kind of test: Western blot degradation of IKZF3 in hPBMCs (24 h). The method in brief: as §1
A general note: A western blot detects proteins with antibodies after separation by electrophoresis.

The target of test [3] is T3, IKZF2 (Homo sapiens, UniProt Q96SW2+Q9UKS7).
T3 construct: The supernatant was aspirated as the extracted total cell protein; endogenous in cells; host or cells: human peripheral blood mononuclear cells (hPBMCs)
T3 sequence (Q9UKS7 whole entry): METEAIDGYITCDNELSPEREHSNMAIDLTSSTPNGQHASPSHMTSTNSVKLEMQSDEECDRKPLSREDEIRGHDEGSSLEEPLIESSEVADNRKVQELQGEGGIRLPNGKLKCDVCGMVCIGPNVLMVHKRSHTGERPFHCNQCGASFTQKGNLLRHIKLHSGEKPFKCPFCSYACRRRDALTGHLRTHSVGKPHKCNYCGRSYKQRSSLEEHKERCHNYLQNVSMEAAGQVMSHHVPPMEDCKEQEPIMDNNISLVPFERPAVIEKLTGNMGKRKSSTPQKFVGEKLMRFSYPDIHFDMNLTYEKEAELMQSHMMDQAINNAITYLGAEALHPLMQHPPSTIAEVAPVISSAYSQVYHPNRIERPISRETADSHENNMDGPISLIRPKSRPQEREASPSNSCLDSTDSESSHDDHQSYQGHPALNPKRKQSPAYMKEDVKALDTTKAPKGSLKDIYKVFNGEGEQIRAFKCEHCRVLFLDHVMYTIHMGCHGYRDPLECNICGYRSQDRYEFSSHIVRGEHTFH
T3 sequence (Q96SW2 whole entry): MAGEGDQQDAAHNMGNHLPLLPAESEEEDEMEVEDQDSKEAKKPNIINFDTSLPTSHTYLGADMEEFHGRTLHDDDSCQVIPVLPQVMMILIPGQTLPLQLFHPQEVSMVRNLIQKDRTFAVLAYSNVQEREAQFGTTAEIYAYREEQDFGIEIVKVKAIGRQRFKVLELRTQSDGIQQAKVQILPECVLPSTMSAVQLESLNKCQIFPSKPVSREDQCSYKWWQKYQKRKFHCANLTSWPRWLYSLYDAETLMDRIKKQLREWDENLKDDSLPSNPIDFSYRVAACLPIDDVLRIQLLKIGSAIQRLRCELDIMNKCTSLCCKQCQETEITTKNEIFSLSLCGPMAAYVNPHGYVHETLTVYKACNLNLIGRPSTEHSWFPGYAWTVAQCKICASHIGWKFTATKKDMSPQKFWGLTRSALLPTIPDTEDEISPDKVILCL
T3 sequence (Q16531 whole entry partner): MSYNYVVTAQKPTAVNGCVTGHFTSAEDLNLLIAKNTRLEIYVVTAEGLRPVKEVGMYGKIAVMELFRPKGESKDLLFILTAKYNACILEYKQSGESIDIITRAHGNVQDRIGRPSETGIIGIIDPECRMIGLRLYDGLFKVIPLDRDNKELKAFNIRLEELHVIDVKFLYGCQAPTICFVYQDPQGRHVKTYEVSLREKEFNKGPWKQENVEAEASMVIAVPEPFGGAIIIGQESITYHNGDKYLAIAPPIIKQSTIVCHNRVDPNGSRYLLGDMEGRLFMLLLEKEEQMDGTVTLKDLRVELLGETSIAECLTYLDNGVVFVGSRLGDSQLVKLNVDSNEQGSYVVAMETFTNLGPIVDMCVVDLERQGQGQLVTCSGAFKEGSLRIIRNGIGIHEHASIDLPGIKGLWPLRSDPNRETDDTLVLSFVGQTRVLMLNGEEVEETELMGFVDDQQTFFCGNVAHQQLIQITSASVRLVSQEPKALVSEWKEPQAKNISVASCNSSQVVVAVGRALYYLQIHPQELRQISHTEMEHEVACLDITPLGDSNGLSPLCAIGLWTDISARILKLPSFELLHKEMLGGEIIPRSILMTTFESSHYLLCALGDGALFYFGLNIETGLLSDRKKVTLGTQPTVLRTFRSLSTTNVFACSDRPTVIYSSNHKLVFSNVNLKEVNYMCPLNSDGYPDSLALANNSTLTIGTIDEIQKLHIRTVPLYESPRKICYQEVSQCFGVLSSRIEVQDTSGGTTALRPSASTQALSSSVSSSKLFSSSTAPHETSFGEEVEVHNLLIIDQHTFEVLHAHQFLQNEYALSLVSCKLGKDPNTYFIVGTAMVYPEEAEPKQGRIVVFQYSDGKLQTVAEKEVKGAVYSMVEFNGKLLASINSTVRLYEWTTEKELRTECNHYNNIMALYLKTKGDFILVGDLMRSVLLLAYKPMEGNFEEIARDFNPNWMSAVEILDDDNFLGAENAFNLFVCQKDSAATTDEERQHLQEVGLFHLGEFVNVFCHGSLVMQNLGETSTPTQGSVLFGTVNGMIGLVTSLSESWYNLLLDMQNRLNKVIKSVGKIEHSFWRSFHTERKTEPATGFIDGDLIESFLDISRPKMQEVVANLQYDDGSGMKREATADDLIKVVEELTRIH
Kind of test: Western blot degradation of IKZF2 in hPBMCs (24 h). The method in brief:
as §1

In test [4] the target is T4, CK1α (Homo sapiens, UniProt P48729+Q96SW2).
T4 construct: The supernatant was aspirated as the extracted total cell protein; endogenous in cells; host or cells: human peripheral blood mononuclear cells (hPBMCs)
T4 sequence (P48729 whole entry): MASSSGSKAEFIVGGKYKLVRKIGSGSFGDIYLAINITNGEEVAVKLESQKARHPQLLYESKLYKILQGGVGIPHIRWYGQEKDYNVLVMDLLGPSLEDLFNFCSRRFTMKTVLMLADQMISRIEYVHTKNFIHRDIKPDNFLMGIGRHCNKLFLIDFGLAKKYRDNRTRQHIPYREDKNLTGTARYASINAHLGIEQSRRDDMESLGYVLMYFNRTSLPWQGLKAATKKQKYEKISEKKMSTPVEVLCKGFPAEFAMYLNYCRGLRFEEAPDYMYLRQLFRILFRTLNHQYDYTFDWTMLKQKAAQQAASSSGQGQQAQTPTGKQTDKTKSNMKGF
T4 sequence (Q96SW2 whole entry): as the sequence (Q96SW2 whole entry) above
T4 sequence (Q16531 whole entry partner): as the sequence (Q16531 whole entry partner) above
Kind of test: Western blot degradation of CK1α in hPBMCs (24 h). The method in brief: as §1

The target of test [5] is T5, GSPT1 (Homo sapiens, UniProt P15170+Q96SW2).
T5 construct: The supernatant was aspirated as the extracted total cell protein; endogenous in cells; host or cells: human peripheral blood mononuclear cells (hPBMCs)
T5 sequence (P15170 whole entry): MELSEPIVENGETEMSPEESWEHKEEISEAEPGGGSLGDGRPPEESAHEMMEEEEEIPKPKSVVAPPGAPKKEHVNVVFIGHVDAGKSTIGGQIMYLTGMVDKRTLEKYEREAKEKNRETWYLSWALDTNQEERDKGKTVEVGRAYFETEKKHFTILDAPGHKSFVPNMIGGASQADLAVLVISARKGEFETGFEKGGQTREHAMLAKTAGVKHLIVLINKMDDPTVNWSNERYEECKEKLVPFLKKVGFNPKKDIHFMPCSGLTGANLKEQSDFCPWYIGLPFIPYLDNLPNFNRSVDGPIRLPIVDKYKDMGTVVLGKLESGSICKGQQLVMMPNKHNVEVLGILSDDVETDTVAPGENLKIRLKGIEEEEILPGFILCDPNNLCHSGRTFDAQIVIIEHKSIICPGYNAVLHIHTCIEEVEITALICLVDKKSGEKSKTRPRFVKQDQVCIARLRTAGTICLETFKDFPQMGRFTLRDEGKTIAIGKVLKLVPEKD
T5 sequence (Q96SW2 whole entry): as the sequence (Q96SW2 whole entry) above
T5 sequence (Q16531 whole entry partner): as the sequence (Q16531 whole entry partner) above
Kind of test: Western blot degradation of GSPT1 in hPBMCs (24 h). The method in brief: as §1

In test [6] the target is T6, WEE1 (Homo sapiens, UniProt P30291+Q96SW2).
T6 construct: The supernatant was aspirated as the extracted total cell protein; endogenous in cells; host or cells: human peripheral blood mononuclear cells (hPBMCs)
T6 sequence (P30291 whole entry): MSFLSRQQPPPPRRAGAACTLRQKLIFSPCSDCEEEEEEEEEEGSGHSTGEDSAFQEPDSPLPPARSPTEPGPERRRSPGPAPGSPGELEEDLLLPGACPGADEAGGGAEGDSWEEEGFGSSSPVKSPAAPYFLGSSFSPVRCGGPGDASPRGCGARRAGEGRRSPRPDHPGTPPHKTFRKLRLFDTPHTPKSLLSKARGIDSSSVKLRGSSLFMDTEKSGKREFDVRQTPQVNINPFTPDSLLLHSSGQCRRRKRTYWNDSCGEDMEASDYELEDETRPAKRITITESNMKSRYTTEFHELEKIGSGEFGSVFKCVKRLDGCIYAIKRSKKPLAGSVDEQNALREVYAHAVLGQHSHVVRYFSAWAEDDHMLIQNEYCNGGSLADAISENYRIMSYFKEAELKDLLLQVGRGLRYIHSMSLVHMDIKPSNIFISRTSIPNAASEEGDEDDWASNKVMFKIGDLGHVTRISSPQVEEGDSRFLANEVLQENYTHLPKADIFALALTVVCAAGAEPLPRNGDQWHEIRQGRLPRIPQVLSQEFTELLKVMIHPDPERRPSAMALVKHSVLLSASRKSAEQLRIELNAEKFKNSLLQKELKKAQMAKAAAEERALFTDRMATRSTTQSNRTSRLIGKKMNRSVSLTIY
T6 sequence (Q96SW2 whole entry): as the sequence (Q96SW2 whole entry) above
T6 sequence (Q16531 whole entry partner): as the sequence (Q16531 whole entry partner) above
Description: Western blot degradation of WEE1 in hPBMCs (24 h). The method in brief:
as §1

T2 sequence (Q9UKT9 whole entry): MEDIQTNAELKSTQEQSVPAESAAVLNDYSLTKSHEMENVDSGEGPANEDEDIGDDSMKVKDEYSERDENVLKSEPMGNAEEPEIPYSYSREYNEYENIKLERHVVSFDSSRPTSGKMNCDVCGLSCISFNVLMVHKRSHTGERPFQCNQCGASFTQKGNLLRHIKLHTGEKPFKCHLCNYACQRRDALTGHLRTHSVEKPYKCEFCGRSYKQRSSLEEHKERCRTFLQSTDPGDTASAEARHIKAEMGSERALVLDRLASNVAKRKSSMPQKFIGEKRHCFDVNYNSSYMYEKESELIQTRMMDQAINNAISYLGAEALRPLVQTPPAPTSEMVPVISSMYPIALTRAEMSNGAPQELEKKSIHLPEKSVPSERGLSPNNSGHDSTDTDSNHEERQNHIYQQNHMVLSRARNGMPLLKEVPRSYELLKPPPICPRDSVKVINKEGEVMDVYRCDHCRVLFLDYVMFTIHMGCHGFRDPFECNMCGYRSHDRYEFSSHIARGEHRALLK
T2 sequence (Q96SW2 whole entry): as the sequence (Q96SW2 whole entry) above
T2 sequence (Q16531 whole entry partner): as the sequence (Q16531 whole entry partner) above

For the compound `CC1(C)CCC(CN2C3CC2CN(Cc2ccc4c(c2)CN(N2CCC(=O)NC2=O)C4=O)C3)=C(c2ccc(Cl)cc2)C1` [GT-06458, 1-(5-((6-((4′-chloro-5,5-dimethyl-3,4,5,6-tetrahydro-[1,1′-biphenyl]-2-yl)methyl)-3,6-diazabicyclo[3.1.1]heptan-3-yl)methyl)-1-oxoisoindolin-2-yl)dihydropyrimidine-2,4(1H,3H)-dione], in test [1], the “IKZF1 substrate protein remaining %” value is “A (0% ≤ substrate protein remaining % ≤80%)”. Further, in test [2], the “IKZF3 substrate protein remaining %” value is “A (0% ≤ substrate protein remaining % ≤80%)”. The “IKZF2 substrate protein remaining %” value in test [3] is “A (0% ≤ substrate protein remaining % ≤80%)”. For the same compound, in test [4], the “CK1α substrate protein remaining %” value was “A (0% ≤ substrate protein remaining % ≤80%)”. For the same compound, the “GSPT1 substrate protein remaining %” value in test [5] was “A (0% ≤ substrate protein remaining % ≤80%)”. The “WEE1 substrate protein remaining %” value in test [6] is recorded as “A (0% ≤ substrate protein remaining % ≤80%)”.

Consider `CC1(C)CCC(CN2C3CC2CN(Cc2ccc4c(c2)C(=O)N(N2CCC(=O)NC2=O)C4=O)C3)=C(c2ccc(Cl)cc2)C1` [GT-06459, 5-((6-((4′-chloro-5,5-dimethyl-3,4,5,6-tetrahydro-[1,1′-biphenyl]-2-yl)methyl)-3,6-diazabicyclo[3.1.1]heptan-3-yl)methyl)-2-(2,4-dioxotetrahydropyrimidin-1(2H)-yl)isoindoline-1,3-dione], for which, in test [1], the “IKZF1 substrate protein remaining %” value is “A (0% ≤ substrate protein remaining % ≤80%)”. Further, in test [2], the “IKZF3 substrate protein remaining %” value is “A (0% ≤ substrate protein remaining % ≤80%)”. For the same compound, in test [3], the “IKZF2 substrate protein remaining %” value is “A (0% ≤ substrate protein remaining % ≤80%)”. The “CK1α substrate protein remaining %” value in test [4] is reported as “A (0% ≤ substrate protein remaining % ≤80%)”. The “GSPT1 substrate protein remaining %” value in test [5] is “A (0% ≤ substrate protein remaining % ≤80%)”. The “WEE1 substrate protein remaining %” value in test [6] is on record as “A (0% ≤ substrate protein remaining % ≤80%)”.

As to `O=C1CCN(N2Cc3cc(CN4CCN(c5cccc(F)c5)CC4)ccc3C2=O)C(=O)N1` [GT-06701, 1-(5-((4-(3-fluorophenyl)piperazin-1-yl)methyl)-1-oxoisoindolin-2-yl)dihydropyrimidine-2,4(1H,3H)-dione], in test [1], the “IKZF1 substrate protein remaining %” value is “B (80%< substrate protein remaining % ≤100%)”. Besides, the “IKZF3 substrate protein remaining %” value in test [2] was “B (80%< substrate protein remaining % ≤100%)”. Moreover, the “IKZF2 substrate protein remaining %” value in test [3] is reported as “B (80%< substrate protein remaining % ≤100%)”. Further, the “CK1α substrate protein remaining %” value in test [4] is reported as “A (0% ≤ substrate protein remaining % ≤80%)”. For the same compound, the “GSPT1 substrate protein remaining %” value in test [5] was “A (0% ≤ substrate protein remaining % ≤80%)”. Moreover, the “WEE1 substrate protein remaining %” value in test [6] is recorded as “B (80%< substrate protein remaining % ≤100%)”.

For the compound `O=C1CCN(N2C(=O)c3ccc(CN4CCN(c5ccccc5)CC4)cc3C2=O)C(=O)N1` [GT-06719, 2-(2,4-dioxotetrahydropyrimidin-1(2H)-yl)-5-((4-phenylpiperazin-1-yl)methyl)isoindoline-1,3-dione], the “IKZF1 substrate protein remaining %” value in test [1] is “B (80%< substrate protein remaining % ≤100%)”. Moreover, in test [2], the “IKZF3 substrate protein remaining %” value was “A (0% ≤ substrate protein remaining % ≤80%)”. The “IKZF2 substrate protein remaining %” value in test [3] is recorded as “B (80%< substrate protein remaining % ≤100%)”. In addition, the “CK1α substrate protein remaining %” value in test [4] was “B (80%< substrate protein remaining % ≤100%)”. The “GSPT1 substrate protein remaining %” value in test [5] was “B (80%< substrate protein remaining % ≤100%)”. Besides, the “WEE1 substrate protein remaining %” value in test [6] was “B (80%< substrate protein remaining % ≤100%)”.

Take `COc1ccccc1N1CCN(Cc2ccc3c(c2)C(=O)N(N2CCC(=O)NC2=O)C3=O)CC1` [GT-06720, 2-(2,4-dioxotetrahydropyrimidin-1(2H)-yl)-5-((4-(2-methoxyphenyl)piperazin-1-yl)methyl)isoindoline-1,3-dione]: the “IKZF1 substrate protein remaining %” value in test [1] is “B (80%< substrate protein remaining % ≤100%)”. Further, the “IKZF3 substrate protein remaining %” value in test [2] is listed as “A (0% ≤ substrate protein remaining % ≤80%)”. In test [3], the “IKZF2 substrate protein remaining %” value is “B (80%< substrate protein remaining % ≤100%)”. Besides, the “CK1α substrate protein remaining %” value in test [4] is listed as “B (80%< substrate protein remaining % ≤100%)”. Moreover, the “GSPT1 substrate protein remaining %” value in test [5] is listed as “B (80%< substrate protein remaining % ≤100%)”. Also, the “WEE1 substrate protein remaining %” value in test [6] is on record as “B (80%< substrate protein remaining % ≤100%)”.

Turning to `COc1cccc(N2CCN(Cc3ccc4c(c3)C(=O)N(N3CCC(=O)NC3=O)C4=O)CC2)c1` [GT-06721, 2-(2,4-dioxotetrahydropyrimidin-1(2H)-yl)-5-((4-(3-methoxyphenyl)piperazin-1-yl)methyl)isoindoline-1,3-dione], the “IKZF1 substrate protein remaining %” value in test [1] is “A (0% ≤ substrate protein remaining % ≤80%)”. In addition, the “IKZF3 substrate protein remaining %” value in test [2] was “A (0% ≤ substrate protein remaining % ≤80%)”. Also, the “IKZF2 substrate protein remaining %” value in test [3] is recorded as “A (0% ≤ substrate protein remaining % ≤80%)”. Moreover, the “CK1α substrate protein remaining %” value in test [4] was “B (80%< substrate protein remaining % ≤100%)”. Also, the “GSPT1 substrate protein remaining %” value in test [5] was “B (80%< substrate protein remaining % ≤100%)”. The “WEE1 substrate protein remaining %” value in test [6] is given as “B (80%< substrate protein remaining % ≤100%)”.

As to `O=C1CCN(N2C(=O)c3ccc(CN4CCN(c5cccc(Br)c5)CC4)cc3C2=O)C(=O)N1` [GT-06722, 5-((4-(3-bromophenyl)piperazin-1-yl)methyl)-2-(2,4-dioxotetrahydropyrimidin-1(2H)-yl)isoindoline-1,3-dione], the “IKZF1 substrate protein remaining %” value in test [1] is on record as “A (0% ≤ substrate protein remaining % ≤80%)”. Besides, the “IKZF3 substrate protein remaining %” value in test [2] was “A (0% ≤ substrate protein remaining % ≤80%)”. Moreover, in test [3], the “IKZF2 substrate protein remaining %” value is listed as “B (80%< substrate protein remaining % ≤100%)”. Also, in test [4], the “CK1α substrate protein remaining %” value is “A (0% ≤ substrate protein remaining % ≤80%)”. Also, the “GSPT1 substrate protein remaining %” value in test [5] was “B (80%< substrate protein remaining % ≤100%)”. Moreover, the “WEE1 substrate protein remaining %” value in test [6] was “A (0% ≤ substrate protein remaining % ≤80%)”.

For `O=C1CCN(N2C(=O)c3ccc(CN4CCN(c5cccc(F)c5)CC4)cc3C2=O)C(=O)N1` [GT-06724, 2-(2,4-dioxotetrahydropyrimidin-1(2H)-yl)-5-((4-(3-fluorophenyl)piperazin-1-yl)methyl)isoindoline-1,3-dione], the “IKZF1 substrate protein remaining %” value in test [1] was “A (0% ≤ substrate protein remaining % ≤80%)”. Besides, the “IKZF3 substrate protein remaining %” value in test [2] is “B (80%< substrate protein remaining % ≤100%)”. For the same compound, the “IKZF2 substrate protein remaining %” value in test [3] is on record as “B (80%< substrate protein remaining % ≤100%)”. The “CK1α substrate protein remaining %” value in test [4] is on record as “B (80%< substrate protein remaining % ≤100%)”. For the same compound, the “GSPT1 substrate protein remaining %” value in test [5] is “B (80%< substrate protein remaining % ≤100%)”. Moreover, the “WEE1 substrate protein remaining %” value in test [6] was “A (0% ≤ substrate protein remaining % ≤80%)”.

For the compound `O=C1CCN(N2C(=O)c3ccc(CN4CCN(c5ccc(F)cc5)CC4)cc3C2=O)C(=O)N1` [GT-06725, 2-(2,4-dioxotetrahydropyrimidin-1(2H)-yl)-5-((4-(4-fluorophenyl)piperazin-1-yl)methyl)isoindoline-1,3-dione], in test [1], the “IKZF1 substrate protein remaining %” value is on record as “A (0% ≤ substrate protein remaining % ≤80%)”. Also, the “IKZF3 substrate protein remaining %” value in test [2] is listed as “B (80%< substrate protein remaining % ≤100%)”. In addition, the “IKZF2 substrate protein remaining %” value in test [3] is given as “B (80%< substrate protein remaining % ≤100%)”. In addition, the “CK1α substrate protein remaining %” value in test [4] is reported as “B (80%< substrate protein remaining % ≤100%)”. In addition, the “GSPT1 substrate protein remaining %” value in test [5] is “B (80%< substrate protein remaining % ≤100%)”. Also, the “WEE1 substrate protein remaining %” value in test [6] is recorded as “B (80%< substrate protein remaining % ≤100%)”.

For `O=C1CCN(N2C(=O)c3ccc(CN4CCN(c5ccccc5Cl)CC4)cc3C2=O)C(=O)N1` [GT-06726, 5-((4-(2-chlorophenyl)piperazin-1-yl)methyl)-2-(2,4-dioxotetrahydropyrimidin-1(2H)-yl)isoindoline-1,3-dione], the “IKZF1 substrate protein remaining %” value in test [1] was “B (80%< substrate protein remaining % ≤100%)”. Besides, in test [2], the “IKZF3 substrate protein remaining %” value was “A (0% ≤ substrate protein remaining % ≤80%)”. In test [3], the “IKZF2 substrate protein remaining %” value is listed as “A (0% ≤ substrate protein remaining % ≤80%)”. The “CK1α substrate protein remaining %” value in test [4] is “A (0% ≤ substrate protein remaining % ≤80%)”. Moreover, the “GSPT1 substrate protein remaining %” value in test [5] is “B (80%< substrate protein remaining % ≤100%)”. Moreover, in test [6], the “WEE1 substrate protein remaining %” value was “A (0% ≤ substrate protein remaining % ≤80%)”.

Turning to `O=C1CCN(N2C(=O)c3ccc(CN4CCN(c5ccccc5Br)CC4)cc3C2=O)C(=O)N1` [GT-06727, 5-((4-(2-bromophenyl)piperazin-1-yl)methyl)-2-(2,4-dioxotetrahydropyrimidin-1(2H)-yl)isoindoline-1,3-dione], the “IKZF1 substrate protein remaining %” value in test [1] is “B (80%< substrate protein remaining % ≤100%)”. Moreover, the “IKZF3 substrate protein remaining %” value in test [2] is recorded as “A (0% ≤ substrate protein remaining % ≤80%)”. Further, the “IKZF2 substrate protein remaining %” value in test [3] was “A (0% ≤ substrate protein remaining % ≤80%)”. Moreover, the “CK1α substrate protein remaining %” value in test [4] is reported as “A (0% ≤ substrate protein remaining % ≤80%)”. In test [5], the “GSPT1 substrate protein remaining %” value is recorded as “B (80%< substrate protein remaining % ≤100%)”. Also, the “WEE1 substrate protein remaining %” value in test [6] is “B (80%< substrate protein remaining % ≤100%)”.
